# Measurements from patent US7022739B2, “Substituted 1-aminobutan-3-ol compounds” (Gruenenthal GmbH, priority 2000, dated 2006).
# Key:
# [1] = test system: gabapentin binding site; experiment: Gabapentin binding assay (displacement of gabapentin from its binding site)
# Protocol: Gabapentin is used in the binding assay in order to check the binding and affinities of the selected compounds. The affinity of the compounds according to the invention is measured via the displacement of gabapentin from its binding site.
# [2] = test system: phenylquinone-induced writhing; experiment: Phenylquinone-induced writhing test in mice; type: in vivo; settings: male NMRI mice, groups of 10
Compound,"% Inhibition Gabapentin, 10 μmole [1] [%]","Reacting Animals/Control Animals (Writhing) ([2]; 10 mg/kg, iv)",also measured
"COc1cccc(C2CCCC(CN(C)C)C2(O)c2ccc(Cl)cc2)c1 (stereo not shown) [Example 45, 1-(4-chlorophenyl)-2-dimethylaminomethyl-6-(3-methoxyphenyl)-cyclohexanol]",58,,
"COc1cccc(C2CCCC(CN(C)C)C2(O)c2cccc(Cl)c2)c1 (stereo not shown) [Example 75, 1-(3-chlorophenyl)-2-dimethylaminomethyl-6-(3-methoxyphenyl)-cyclohexanol]",54,,
"COc1cccc(C2CCCC(CN(C)C)C2(O)c2ccc(C)cc2)c1 (stereo not shown) [Example 76, 2-dimethylaminomethyl-6-(3-methoxyphenyl)-1-p-tolylcyclohexanol]",53,,
"CN(C)CC1CCCC(c2cccc(O)c2)C1(O)c1ccc(F)cc1 (stereo not shown) [Example 81, 3-[3-dimethylaminomethyl-2-(4-fluorophenyl)-2-hydroxycyclohexyl]-phenol]",48,,
"CN(C)CC1CCCC(c2cccc(O)c2)C1(O)c1ccccc1 (stereo not shown) [Example 82, 3-(3-dimethylaminomethyl-2-hydroxy-2-phenylcyclohexyl)-phenol]",55,,
"COc1cccc(C2CCCC(CN(C)C)C2(O)c2ccc(Cl)cc2)c1 (stereo not shown) [Example 85, 1-(4-chlorophenyl)-2-dimethylaminomethyl-6-(3-methoxyphenyl)-cyclohexanol]",,,"Reacting Animals/Control Animals (Writhing) ([2]; 46.4 mg/kg, iv): 10/10 (46.4 mg/kg; iv)"
"COc1cccc(C2(O)C(CN(C)C)CCCC2C2CCCCC2)c1 (stereo not shown) [Example 86, 3-dimethylaminomethyl-2-(3-methoxyphenyl)-bicyclohexyl-2-ol]",,,"Reacting Animals/Control Animals (Writhing) ([2]; 21.5 mg/kg, po): 3/10 (21.5 mg/kg; po)"
"CN(C)CC1CCCC(Cc2ccccc2)C1(O)c1ccc(C(F)(F)F)cc1 (stereo not shown) [Example 87, 2-benzyl-6-dimethylaminomethyl-1-(4-trifluoromethylphenyl)-cyclohexanol]",,2/10 (10 mg/kg; iv),
"CN(C)CC1CCCC(Cc2ccccc2)C1(O)c1cccc(O)c1 (stereo not shown) [Example 88, 3-(2-benzyl-6-dimethylaminomethyl-1-hydroxycyclohexyl)-phenol]",,2/10 (10 mg/kg; iv),
"CN(C)CC1CCCC(C(C)(C)C)C1(O)c1cccc(O)c1 (stereo not shown) [Example 89, 3-(2-tert.-butyl-6-dimethylaminomethyl-1-hydroxycyclohexyl)-phenol]",,3/10 (10 mg/kg; iv),
